What was measured:
[1] = tested on: model of neuropathic pain in rats; assay: Model of neuropathic pain (sciatic nerve ligation), threshold of pain sensitivity by dolorimeter; assay type: in vivo, male Wistar rats; settings: for Changes in the threshold of pain perception, regarding healthy limb: damaged vs healthy limb before administration (baseline); for Threshold of pain sensitivity, damaged limb / Threshold of pain sensitivity, healthy limb: day 14 after ligation, before administration (baseline), M±m, n=10; for Threshold of pain sensitivity 2 hours after compounds administration: damaged limb
Experimental: An evaluation of the antinociceptive action of the test compound (1) on a model of neuropathic pain was carried out on 50 male Wistar rats weighing 270-310 g. The model of neuropathic pain was reproduced by ligation of the sciatic nerve at the level of the upper third of the thigh at the level of the popliteal fossa higher than the site of its trifurcation by N. tibialis, N. peroneus and N. suralis (see Mironov A. N. et al. Guidelines for conducting preclinical studies of drugs. Part one.—Moscow 2012. p. 197-219). The development of the pathological process lasted 14 days. The degree of hyperalgesia was determined using a dolorimeter (Dolorimeter Baseline, USA) by determining the threshold of pain sensitivity (TPS)—the minimum pressure on the lower surface of the rat's foot (g/mm^2), which caused pain in the animal (vocalization and/or withdrawal of the foot). Each animal was given 5 attempts; the threshold value was taken with such a pressure force, which caused a positive response in at least one attempt. The threshold of pain sensitivity was compared on intact and damaged limbs on day 14 after ligation (pathology without treatment), as well as on the injured limb after 2 hours (peak of action) after the drugs administration. The test compound and the reference drug (ketorolac) were administered intragastrally (as gavage) once at doses of 0.5 and 3 mg/kg. Sciatic nerve ligation in animals caused the development of neuropathic pain syndrome, which manifested itself in behavioral reactions of the rat and lowering the threshold of pain sensitivity by an average of 44-48% (see Table 1). The analgesic effect of Compound 1 compared with ketorolac under the conditions of their intragastral administration on the model of neuropathic pain in rats (M±m, n=10, where n is the number of animals in the experiments) is shown in Table 1.

gastric mucosa [2] = assay: Ulcerogenic effect, acute experiment (single intragastric dose); assay type: in vivo, rats; settings: 3 hours; for Average score: 4-score scale; for Multiplicity of damage: number of ulcers per animal
Experimental: (§1) The disadvantage of most analgesics is the fact that they have ulcerogenic effect that interferes with their long-term use. We have studied this side effect of Compound 1 in acute and subchronic experiments. In the first scheme, the compound in the form of an aqueous suspension (Tween-80) was administered in single dose intragastrically to rats, which had previously been deprived of food for 16 hours with free access to water. After 3 hours, the animals were euthanized with a cervical dislocation, then, after dissection of the abdominal cavity, stomachs were ejected and washed in isotonic sodium chloride solution to take out the contents. Damage of stomach was determined visually. In the second scheme, the compound was administered intragastrically for 4 days, after that the extent of the damaging effect on the stomach was determined, as in the previous experiment.
(§2) Evaluation of ulcerogenic action was carried out on a 4-score scale:
(§3) 0 score—no damage; 0.5 score—hyperemia (blood vessels overflow)
(§4) 1 score—single minor lesions (1-3 point hemorrhages or small ulcers)
(§5) 2 score—multiple (more than 3) lesions (erosions, pinpoint hemorrhages) or 1 large ulcer
(§6) 3 score—significant and massive damages (erosions, hemorrhages) of the gastric mucosa with significant size (diameter up to 4 mm)
(§7) 4 score—gross injuries (massive hemorrhages, erosions, perforations) that cover the entire surface of the gastric mucosa.
(§8) The average multiplicity index of damage to the gastric mucosa (the number of ulcers per animal) and the severity of the damage (in scores) were determined.
(§9) Compound 1 was administered over a wide dose range—in acute studies—50, 250, 500 and 1000 mg/kg. For the subchronic experiment, the compound was used at a dose of 50 mg/kg.

gastric mucosa [3] = assay: Ulcerogenic effect, subchronic experiment (4 days intragastric); assay type: in vivo, rats; settings: 50 mg/kg intragastrically for 4 days
Experimental: as §1, §2, §3, §4, §5, §6, §7, §8, §9
We also determined the indexes of gastrotoxicity of gastric mucosa under conditions of repeated intragastral administration (for 4 days at a dose of 50 mg/kg). […] The average severity in this group was of 1.4±0.27 score, and the multiplicity was of 1.9±0.64 ulcers per animal. This also indicates the absence of a gastrotoxic effect of this compound on the stomach.

[4] = 50 mg/kg single intragastric dose
[5] = 250 mg/kg single intragastric dose
[6] = 500 mg/kg single intragastric dose
[7] = 1000 mg/kg single intragastric dose

Question: With `CCCOC1N=C(c2ccccc2Cl)c2cc(Br)ccc2NC1=O` (stereo not drawn) [Compound 1, 7-bromo-5-(o-chlorophenyl)-3-propoxy-1,2-dihydro-3H-1,4-benzodiazepin-2-one] as the compound, how does the “Changes in the threshold of pain perception, regarding healthy limb” value ([1]; 0.5 mg/kg group) read?
Answer: −48.4 ± 4.6%

Question: And the “Threshold of pain sensitivity, damaged limb” value ([1]; 0.5 mg/kg group)?
Answer: 223.5 ± 20.1 g/mm^2

Question: What about the “Threshold of pain sensitivity, healthy limb” value ([1]; 0.5 mg/kg group) of the same compound?
Answer: 434.3 ± 13.4 g/mm^2

Question: What about the “Threshold of pain sensitivity 2 hours after compounds administration” value ([1]; 0.5 mg/kg intragastrally once) of the same compound?
Answer: 269.3 ± 19.4 g/mm^2

Question: What about the “Changes in the threshold of pain perception, regarding healthy limb” value ([1]; 3 mg/kg group) of the same compound?
Answer: −44.3 ± 2.9%

Question: What about the “Threshold of pain sensitivity, damaged limb” value ([1]; 3 mg/kg group) of the same compound?
Answer: 295.7 ± 29.9 g/mm^2

Question: What about the “Threshold of pain sensitivity, healthy limb” value ([1]; 3 mg/kg group) of the same compound?
Answer: 523.6 ± 28.1 g/mm^2

Question: What about the “Threshold of pain sensitivity 2 hours after compounds administration” value ([1]; 3 mg/kg intragastrally once) of the same compound?
Answer: 532.8 ± 47.1 g/mm^2

Question: What about the “Number of animals with lesions of the gastric mucosa, score 1” value (shortened to “Number of animals with lesions … score 1”) (gastric mucosa [2]; [4]) of the same compound?
Answer: 3

Question: And the “Number of animals with lesions of the gastric mucosa, score 2” value (“Number of animals with lesions … score 2” below) (gastric mucosa [2]; [4])?
Answer: 0

Question: And the “Number of animals with lesions of the gastric mucosa, score 3” value (from here on “Number of animals with lesions … score 3”) (gastric mucosa [2]; [4])?
Answer: 0

Question: And the “Number of animals with lesions of the gastric mucosa, score 4” value (shortened to “Number of animals with lesions … score 4”) (gastric mucosa [2]; [4])?
Answer: 0

Question: And the Average score (gastric mucosa [2]; [4])?
Answer: 0.2 ± 0.13

Question: What about the Multiplicity of damage (gastric mucosa [2]; [4]) of the same compound?
Answer: 0.5 ± 0.34

Question: And the “Number of animals with lesions … score 1” value (gastric mucosa [2]; [5])?
Answer: 5

Question: And the “Number of animals with lesions … score 2” value (gastric mucosa [2]; [5])?
Answer: 2

Question: What about the “Number of animals with lesions … score 3” value (gastric mucosa [2]; [5]) of the same compound?
Answer: 0

Question: What about the “Number of animals with lesions … score 4” value (gastric mucosa [2]; [5]) of the same compound?
Answer: 0

Question: And the Average score (gastric mucosa [2]; [5])?
Answer: 0.8 ± 0.25

Question: What about the Multiplicity of damage (gastric mucosa [2]; [5]) of the same compound?
Answer: 0.9 ± 0.31

Question: What about the “Number of animals with lesions … score 1” value (gastric mucosa [2]; [6]) of the same compound?
Answer: 7

Question: And the “Number of animals with lesions … score 2” value (gastric mucosa [2]; [6])?
Answer: 3

Question: What about the “Number of animals with lesions … score 3” value (gastric mucosa [2]; [6]) of the same compound?
Answer: 0

Question: What about the “Number of animals with lesions … score 4” value (gastric mucosa [2]; [6]) of the same compound?
Answer: 0

Question: And the Average score (gastric mucosa [2]; [6])?
Answer: 1.0 ± 0.21

Question: What about the Multiplicity of damage (gastric mucosa [2]; [6]) of the same compound?
Answer: 1.2 ± 0.25

Question: What about the “Number of animals with lesions … score 1” value (gastric mucosa [2]; [7]) of the same compound?
Answer: 8

Question: What about the “Number of animals with lesions … score 2” value (gastric mucosa [2]; [7]) of the same compound?
Answer: 3

Question: What about the “Number of animals with lesions … score 3” value (gastric mucosa [2]; [7]) of the same compound?
Answer: 0

Question: And the “Number of animals with lesions … score 4” value (gastric mucosa [2]; [7])?
Answer: 0

Question: And the Average score (gastric mucosa [2]; [7])?
Answer: 1.3±0.21

Question: And the Multiplicity of damage (gastric mucosa [2]; [7])?
Answer: 2.0 ± 0.37

Question: What about the “Macroscopic examination of the gastric mucosa” value (gastric mucosa [3]) of the same compound?
Answer: insignificant decrease in the folding of the gastric mucosa and a rather distinct decrease in the amount of mucus

Question: What about the Multiplicity (gastric mucosa [3]; n=10) of the same compound?
Answer: 1.9±0.64 ulcers per animal

Question: And the “Number of animals with lesions … score 1” value (gastric mucosa [3]; n=10)?
Answer: 6

Question: What about the “Number of animals with lesions … score 2” value (gastric mucosa [3]; n=10) of the same compound?
Answer: 5

Question: What about the “Number of animals with lesions … score 3” value (gastric mucosa [3]; n=10) of the same compound?
Answer: 0

Question: What about the “Number of animals with lesions … score 4” value (gastric mucosa [3]; n=10) of the same compound?
Answer: 0

Question: What about the Average severity (gastric mucosa [3]; n=10, 4-score scale) of the same compound?
Answer: 1.4±0.27 score

From patent publication US11304956B2, “Use of 7-bromo-5-(O-chlorophenyl)-3-propoxy-1,2-dihydro-3H-1,4-benzodiazepin-2-one for inhibition of neuropathic pain and seizures of different etiology” (priority 2016, dated 2022)
